Measurements: the supplement of paper PMC10307832

Experiments:
Assay in all cases: relative viability (nuclei count vs DMSO), 5 days (fraction); higher = more cells survive
NCI-H2228 = tested on: NCI-H2228
In short: (§1)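 Values are medians from duplicate plates. Each reflects relative viability, defined as the nuclei count of treated wells over that of vehicle wells. Lung cancer cell lines in 1536-well plates were pin-tool dosed one day after seeding with one drug alone or with a fixed anchor-drug dose plus five library-drug doses (not always all listed) in √10 steps, then fixed, stained and imaged at 4× after 5 days.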

NCI-H1395 = tested on: NCI-H1395
In short: as §1

RERF-LC-KJ = tested on: RERF-LC-KJ
In short: as §1

NCI-H1437 = tested on: NCI-H1437
In short: as §1

NCI-H2405 = tested on: NCI-H2405
In short: as §1

NCI-H2023 = tested on: NCI-H2023
In short: as §1

HOP-62 = tested on: HOP-62
In short: as §1

NCI-H647 = tested on: NCI-H647
In short: as §1

LCLC-97TM1 = tested on: LCLC-97TM1
In short: as §1

NCI-H3122 = tested on: NCI-H3122
In short: as §1

CAL-12T = tested on: CAL-12T
In short: as §1

NCI-H1650 = tested on: NCI-H1650
In short: as §1

NCI-H1793 = tested on: NCI-H1793
In short: as §1

HCC-44 = tested on: HCC-44
In short: as §1

NCI-H322M = tested on: NCI-H322M
In short: as §1

HCC-827 = tested on: HCC-827
In short: as §1

SK-LU-1 = tested on: SK-LU-1
In short: as §1

NCI-H727 = tested on: NCI-H727
In short: as §1

NCI-H1355 = tested on: NCI-H1355
In short: as §1

LXF-289 = tested on: LXF-289
In short: as §1

NCI-H2087 = tested on: NCI-H2087
In short: as §1

BEN = tested on: BEN
In short: as §1

201T = tested on: 201T
In short: as §1

## Clc1ccc(Nc2nnc(Cc3ccncc3)c3ccccc23)cc1 [Vatalanib] + CC1(C)CCC(c2ccc(Cl)cc2)=C(CN2CCN(c3ccc(C(=O)NS(=O)(=O)c4ccc(N[C@H](CCN5CCOCC5)CSc5ccccc5)c(S(=O)(=O)C(F)(F)F)c4)cc3)CC2)C1 [Navitoclax] (partner 0.5 µM)
NCI-H2228; first compound 0.04 µM
  relative viability: 0.845
NCI-H2228; first compound 0.1265 µM
  relative viability: 0.92
NCI-H2228; first compound 0.4 µM
  relative viability: 1.1
NCI-H2228; first compound 1.265 µM
  relative viability: 0.755
NCI-H2228; first compound 4 µM
  relative viability: 0.83
NCI-H1395; first compound 0.04 µM
  relative viability: 1.17
NCI-H1395; first compound 0.1265 µM
  relative viability: 1.07
NCI-H1395; first compound 0.4 µM
  relative viability: 1.37
NCI-H1395; first compound 1.265 µM
  relative viability: 1.07
NCI-H1395; first compound 4 µM
  relative viability: 1.08
RERF-LC-KJ; first compound 0.04 µM
  relative viability: 1.1
RERF-LC-KJ; first compound 0.1265 µM
  relative viability: 0.959
RERF-LC-KJ; first compound 0.4 µM
  relative viability: 0.951
RERF-LC-KJ; first compound 1.265 µM
  relative viability: 0.79
RERF-LC-KJ; first compound 4 µM
  relative viability: 0.822
NCI-H1437; first compound 0.04 µM
  relative viability: 1.09
NCI-H1437; first compound 0.1265 µM
  relative viability: 1.09
NCI-H1437; first compound 0.4 µM
  relative viability: 1.12
NCI-H1437; first compound 1.265 µM
  relative viability: 1.13
NCI-H1437; first compound 4 µM
  relative viability: 1.15
NCI-H2405; first compound 0.04 µM
  relative viability: 0.856
NCI-H2405; first compound 0.1265 µM
  relative viability: 0.726
NCI-H2405; first compound 1.265 µM
  relative viability: 0.728
NCI-H2405; first compound 4 µM
  relative viability: 0.713
NCI-H2023; first compound 0.04 µM
  relative viability: 1
NCI-H2023; first compound 0.1265 µM
  relative viability: 1.02
NCI-H2023; first compound 0.4 µM
  relative viability: 1.08
NCI-H2023; first compound 1.265 µM
  relative viability: 0.892
NCI-H2023; first compound 4 µM
  relative viability: 0.982
HOP-62; first compound 0.04 µM
  relative viability: 1.05
HOP-62; first compound 0.1265 µM
  relative viability: 0.958
HOP-62; first compound 0.4 µM
  relative viability: 1.07
HOP-62; first compound 1.265 µM
  relative viability: 0.949
HOP-62; first compound 4 µM
  relative viability: 1.07
NCI-H647; first compound 0.04 µM
  relative viability: 1.08
NCI-H647; first compound 0.1265 µM
  relative viability: 1.01
NCI-H647; first compound 1.265 µM
  relative viability: 1.05
NCI-H647; first compound 4 µM
  relative viability: 0.957
LCLC-97TM1; first compound 0.04 µM
  relative viability: 0.631
LCLC-97TM1; first compound 0.1265 µM
  relative viability: 0.511
LCLC-97TM1; first compound 0.4 µM
  relative viability: 0.488
LCLC-97TM1; first compound 1.265 µM
  relative viability: 0.401
LCLC-97TM1; first compound 4 µM
  relative viability: 0.38
NCI-H3122; first compound 0.04 µM
  relative viability: 1.03
NCI-H3122; first compound 0.1265 µM
  relative viability: 1.02
NCI-H3122; first compound 0.4 µM
  relative viability: 1
NCI-H3122; first compound 1.265 µM
  relative viability: 1.06
NCI-H3122; first compound 4 µM
  relative viability: 1.02
CAL-12T; first compound 0.04 µM
  relative viability: 1.17
CAL-12T; first compound 0.1265 µM
  relative viability: 1.2
CAL-12T; first compound 0.4 µM
  relative viability: 1.28
CAL-12T; first compound 1.265 µM
  relative viability: 1.15
CAL-12T; first compound 4 µM
  relative viability: 1.31
NCI-H1650; first compound 0.04 µM
  relative viability: 1.32
NCI-H1650; first compound 0.1265 µM
  relative viability: 1.2
NCI-H1650; first compound 0.4 µM
  relative viability: 1.41
NCI-H1650; first compound 1.265 µM
  relative viability: 0.951
NCI-H1650; first compound 4 µM
  relative viability: 1.17
NCI-H1793; first compound 0.04 µM
  relative viability: 0.452
NCI-H1793; first compound 0.1265 µM
  relative viability: 0.435
NCI-H1793; first compound 0.4 µM
  relative viability: 0.498
NCI-H1793; first compound 1.265 µM
  relative viability: 0.318
NCI-H1793; first compound 4 µM
  relative viability: 0.502
HCC-44; first compound 0.04 µM
  relative viability: 0.933
HCC-44; first compound 0.1265 µM
  relative viability: 0.916
HCC-44; first compound 0.4 µM
  relative viability: 0.93
HCC-44; first compound 1.265 µM
  relative viability: 0.915
HCC-44; first compound 4 µM
  relative viability: 0.919
NCI-H322M; first compound 0.04 µM
  relative viability: 1.22
NCI-H322M; first compound 0.1265 µM
  relative viability: 1.21
NCI-H322M; first compound 0.4 µM
  relative viability: 1.27
NCI-H322M; first compound 1.265 µM
  relative viability: 1.14
NCI-H322M; first compound 4 µM
  relative viability: 1.09
HCC-827; first compound 0.04 µM
  relative viability: 1.01
HCC-827; first compound 0.1265 µM
  relative viability: 0.982
HCC-827; first compound 0.4 µM
  relative viability: 1.06
HCC-827; first compound 1.265 µM
  relative viability: 0.994
HCC-827; first compound 4 µM
  relative viability: 0.97
SK-LU-1; first compound 0.04 µM
  relative viability: 0.755
SK-LU-1; first compound 0.1265 µM
  relative viability: 0.594
SK-LU-1; first compound 0.4 µM
  relative viability: 0.742
SK-LU-1; first compound 1.265 µM
  relative viability: 0.832
SK-LU-1; first compound 4 µM
  relative viability: 0.82
NCI-H727; first compound 0.04 µM
  relative viability: 0.428
NCI-H727; first compound 0.1265 µM
  relative viability: 0.403
NCI-H727; first compound 0.4 µM
  relative viability: 0.516
NCI-H727; first compound 1.265 µM
  relative viability: 0.407
NCI-H727; first compound 4 µM
  relative viability: 0.46
NCI-H1355; first compound 0.04 µM
  relative viability: 0.962
NCI-H1355; first compound 0.1265 µM
  relative viability: 0.927
NCI-H1355; first compound 0.4 µM
  relative viability: 1.01
NCI-H1355; first compound 1.265 µM
  relative viability: 0.875
NCI-H1355; first compound 4 µM
  relative viability: 0.917
LXF-289; first compound 0.04 µM
  relative viability: 0.971
LXF-289; first compound 0.1265 µM
  relative viability: 0.901
LXF-289; first compound 0.4 µM
  relative viability: 0.989
LXF-289; first compound 1.265 µM
  relative viability: 0.852
LXF-289; first compound 4 µM
  relative viability: 0.899
NCI-H2087; first compound 0.04 µM
  relative viability: 1.11
NCI-H2087; first compound 0.1265 µM
  relative viability: 1.09
NCI-H2087; first compound 0.4 µM
  relative viability: 1.07
NCI-H2087; first compound 1.265 µM
  relative viability: 0.994
NCI-H2087; first compound 4 µM
  relative viability: 0.964
BEN; first compound 0.04 µM
  relative viability: 0.0773
BEN; first compound 0.1265 µM
  relative viability: 0.0662
BEN; first compound 0.4 µM
  relative viability: 0.0617
BEN; first compound 1.265 µM
  relative viability: 0.0622
BEN; first compound 4 µM
  relative viability: 0.0608
201T; first compound 0.04 µM
  relative viability: 1.17
201T; first compound 0.1265 µM
  relative viability: 1.27
201T; first compound 0.4 µM
  relative viability: 1.25
201T; first compound 1.265 µM
  relative viability: 1.25
201T; first compound 4 µM
  relative viability: 1.21
